The conditions of data set [1]: cited from earlier work.
The conditions of data set [2]: cited from earlier work. The source holds these as a separate data set.
For data set [3] the following is noted: cited from earlier work. The source holds these as a separate data set.
Data set [4] concerns the target T1, human Bradykinin B1 receptor (Homo sapiens, UniProt P46663).
T1 construct: host or cells: CHO-K1
T1 sequence (P46663 1-353): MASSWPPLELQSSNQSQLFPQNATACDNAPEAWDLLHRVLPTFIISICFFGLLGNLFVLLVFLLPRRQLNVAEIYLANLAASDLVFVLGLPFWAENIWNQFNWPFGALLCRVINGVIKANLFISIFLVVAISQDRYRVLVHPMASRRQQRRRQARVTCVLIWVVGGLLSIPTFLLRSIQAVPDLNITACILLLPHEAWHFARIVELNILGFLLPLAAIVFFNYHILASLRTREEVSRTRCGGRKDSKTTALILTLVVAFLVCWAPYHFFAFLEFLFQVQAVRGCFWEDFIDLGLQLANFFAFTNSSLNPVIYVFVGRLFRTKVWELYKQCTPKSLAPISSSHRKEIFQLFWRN
The experiment in a line: Calcium flux Assay (FLIPR) with cells expressing human Bradykinin B1 receptor (hB1). The following applies: absence of 0.1% BSA in assay buffer; CHO-K1 cell line expressing human B1 receptor; agonist Lys-(Des-Arg)-Bradykinin; read-out: hB1 free IC50. Type of data set: cell-based.

The conditions of data set [5]: due to metabolic liability; cited from earlier work.

On to `C[C@@H]1CC[C@H](C)N1C(=O)c1ccc([C@@H](C)NC(=O)C2(NC(=O)c3cc(F)cc(C(F)(F)F)c3)CC2)c(F)c1`, for which, in data set [1], the aqueous solubility result is “reasonable”. Besides, the “pharmacokinetic profile in rat” value in data set [2] was “reasonable”. Moreover, the human metabolic stability result in data set [3] is “poor”. As a reminder, the IC50 is the concentration that gives 50% inhibition. `Cc1cc(NC(=O)C2(c3ccc(C(F)(F)F)cc3F)CC2)cc(-c2nnn[nH]2)c1C(=O)OC1CCCC1` [Example 64, Cyclopentyl 4-[({1-[2-fluoro-4-(trifluoromethyl)phenyl]cyclopropyl}carbonyl)amino]-2-methyl-6-(1H-tetrazol-5-yl)benzoate]: the IC50 in data set [4] amounted to 0.025 µM. On the same count and under the same terms, with `Cc1cc(NC(=O)C2(c3ccc(C(F)(F)F)cc3F)CC2)cc(-c2nnn[nH]2)c1C(=O)O[C@H]1CCOC1` [Example 65, (3S)-tetrahydrofuran-3-yl 4-[({1-[2-fluoro-4-(trifluoromethyl)phenyl]cyclopropyl}carbonyl)amino]-2-methyl-6-(1H-tetrazol-5-yl)benzoate] the figure was 0.062 µM. Same read-out and setting: to `Cc1ccc(NC(=O)c2c(C)cc(NC(=O)C3(c4ccc(C(F)(F)F)cc4F)CC3)cc2-c2nnn[nH]2)nc1` [Example 66, 4-[({1-[2-fluroo-4-(trifluoromethyl)phenyl]cyclopropyl}carbonyl)amino]-2-methyl-N-(5-methylpyridin-2-yl)-6-(1H-tetrazol-5-yl)benzamide] belongs 1.45 µM. Turning to `C[C@@H](NC(=O)C1(NC(=O)C(F)(F)F)CC1)c1ccc(-c2cccc(Cl)c2C(=O)O)cc1F` [MK-0686], the pharmacokinetic profile result in data set [5] is recorded as “suboptimal”.

(Values after US20190177284A1, “TETRAZOLYL-CONTAINING CYCLOPROPANECARBOXAMIDES” (Bayer Pharma Aktiengesellschaft, priority 2017, published 2019).)
